We go through one substance from PMC4124033 (Journal of molecular neuroscience : MN, 2010).

In test [1] the target is T1, monoacylglycerol lipase (MAGL) (Homo sapiens, UniProt Q99685).
T1 sequence (Q99685 1-303): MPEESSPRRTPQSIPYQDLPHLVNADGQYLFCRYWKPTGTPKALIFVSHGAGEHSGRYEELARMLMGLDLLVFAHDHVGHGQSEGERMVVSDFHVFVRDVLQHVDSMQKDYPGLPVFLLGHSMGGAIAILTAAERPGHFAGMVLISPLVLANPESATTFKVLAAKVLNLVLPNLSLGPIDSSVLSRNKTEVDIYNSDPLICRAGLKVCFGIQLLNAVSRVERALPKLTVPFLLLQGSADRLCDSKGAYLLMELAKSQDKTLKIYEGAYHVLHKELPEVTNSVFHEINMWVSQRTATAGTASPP
The test is classed as biochemical.

In test [2] the target is T2, fatty acid amide hydrolase (FAAH) (Rattus norvegicus, UniProt P97612).
T2 sequence (P97612 1-579): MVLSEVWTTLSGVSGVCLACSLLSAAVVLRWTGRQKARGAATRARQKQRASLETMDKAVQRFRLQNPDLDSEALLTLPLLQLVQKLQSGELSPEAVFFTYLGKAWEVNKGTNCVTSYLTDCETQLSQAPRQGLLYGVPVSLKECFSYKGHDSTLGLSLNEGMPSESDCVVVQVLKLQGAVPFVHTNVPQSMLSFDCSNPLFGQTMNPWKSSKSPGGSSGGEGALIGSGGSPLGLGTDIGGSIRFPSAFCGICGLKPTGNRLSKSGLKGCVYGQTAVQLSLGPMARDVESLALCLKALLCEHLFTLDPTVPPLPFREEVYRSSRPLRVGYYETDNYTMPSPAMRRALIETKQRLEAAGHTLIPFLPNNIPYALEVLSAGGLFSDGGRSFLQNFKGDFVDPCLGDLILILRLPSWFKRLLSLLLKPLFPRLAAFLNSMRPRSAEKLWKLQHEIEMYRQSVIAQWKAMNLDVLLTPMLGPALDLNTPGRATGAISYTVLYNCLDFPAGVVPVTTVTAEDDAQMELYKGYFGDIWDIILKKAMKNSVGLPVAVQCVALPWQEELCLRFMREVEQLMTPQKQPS
The test is classed as biochemical.

One may read the IC50 as the concentration needed to halve the response being measured. On to AM5206, for which the IC50 in test [1] came to 15.1 µM; in test [2], 42 ± 6 nM.
